From article PMC9529548 (Computational and Structural Biotechnology Journal, 2022)

System: T1, E. coli transhydrogenase (PntA (α) and PntB (β))
T1 construct: full-length wild-type holoenzyme from E. coli membranes, DDM-solubilised, Ni-NTA (tag not described) and SEC; dimer of two identical protomers (alpha2beta2)
Experiment: spectrophotometric reduction of APAD+ by NADPH, […] nm
Format: biochemical, Escherichia coli
Settings: 100 uM APAD+, 100 uM NADPH, 25 mM HEPES pH 7.5, 50 mM KCl, asolectin, 0.1% DDM, 37 °C; reverse reaction

T1 sequence (P0AB67 whole entry): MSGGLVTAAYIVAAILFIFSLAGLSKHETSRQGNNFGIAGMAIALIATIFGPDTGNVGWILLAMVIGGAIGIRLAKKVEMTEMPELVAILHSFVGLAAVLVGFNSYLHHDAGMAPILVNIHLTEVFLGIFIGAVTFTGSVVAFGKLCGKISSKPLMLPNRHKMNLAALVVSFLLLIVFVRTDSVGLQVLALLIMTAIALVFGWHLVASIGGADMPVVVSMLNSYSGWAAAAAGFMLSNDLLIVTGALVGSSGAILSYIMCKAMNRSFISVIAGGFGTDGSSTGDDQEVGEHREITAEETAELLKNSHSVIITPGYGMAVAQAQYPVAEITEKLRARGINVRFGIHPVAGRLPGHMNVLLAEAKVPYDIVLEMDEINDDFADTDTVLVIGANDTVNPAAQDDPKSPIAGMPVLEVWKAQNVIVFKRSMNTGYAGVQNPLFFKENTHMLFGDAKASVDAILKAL
T1 sequence (P07001 whole entry, further chain): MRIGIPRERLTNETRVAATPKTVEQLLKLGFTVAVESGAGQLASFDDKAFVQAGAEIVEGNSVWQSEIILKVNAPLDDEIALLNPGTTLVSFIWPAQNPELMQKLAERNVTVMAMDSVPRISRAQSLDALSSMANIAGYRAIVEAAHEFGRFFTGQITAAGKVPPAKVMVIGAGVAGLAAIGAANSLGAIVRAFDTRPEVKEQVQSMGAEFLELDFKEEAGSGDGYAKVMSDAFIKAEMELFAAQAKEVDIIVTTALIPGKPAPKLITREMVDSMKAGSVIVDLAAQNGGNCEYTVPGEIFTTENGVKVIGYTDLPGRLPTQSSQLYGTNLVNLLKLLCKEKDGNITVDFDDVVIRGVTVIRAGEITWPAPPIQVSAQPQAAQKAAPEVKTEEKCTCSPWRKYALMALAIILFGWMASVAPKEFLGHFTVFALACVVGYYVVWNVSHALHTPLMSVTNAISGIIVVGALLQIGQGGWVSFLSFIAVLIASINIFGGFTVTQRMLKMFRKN

`CC(=O)c1ccc[n+]([C@@H]2O[C@H](COP(=O)(O)OP(=O)(O)OC[C@H]3O[C@@H](n4cnc5c(N)ncnc54)[C@H](O)[C@@H]3O)[C@@H](O)[C@H]2O)c1` [APAD^+] was tested, and the “spectrophotometric reduction of APAD+ by NADPH, 375 nm” value was “reverse transhydrogenase activity of the protein in DDM was measured using the reduction of APAD^+”.
